# According to paper PMC11706957 (Scientific Reports, 2025):
# Several values for one entry are separate records, joined by “and”; a condition that tells them apart may be missing. Equal values may be shown once.
# What was measured:
# DYRK1B [1] = molecular target: T1, DYRK1B (Homo sapiens, UniProt Q9Y463); experiment: Lantha (TR-FRET) kinase binding assay
# T1 construct: purchased ThermoFisher Scientific
# Procedure: Kinase binding activity was performed as described in[23]. Briefly, a 12-points dilution series of the compounds was prepared in DMSO and further diluted 1:33 in assay buffer A (50 mM HEPES (Sigma-Aldrich) pH 7.5, 10 mM MgCl2 (Sigma-Aldrich) 1 mM EGTA (Sigma-Aldrich) and 0.01% BRIJ-35 (ThermoFisher Scientific, Waltham, MA, USA). The GST tagged kinases, antibodies and tracer were purchased from ThermoFisher Scientific. DYRK1A and DYRK1B were each mixed with rabbit anti GST Europium tagged antibody in assay buffer A at concentrations of 15 nM kinase and 6 nM antibodies. Tracer 236 was diluted to 90 nM (DYRK1A) or 30 nM (DYRK1B) in assay buffer A. Finally, the kinase-antibody solution, compound solution and tracer solution were mixed together 1:1:1 (5µL each) in white, non-binding, round bottom 384 well microplates (Corning Inc, Kennebunk, ME, USA) mixed at 1000 rpm for 1 min and incubated in the dark at RT in humid atmosphere for 1 h. Fluorescence measurements were taken using a EnVision 2104 Multilabel reader (PerkinElmer, Shelton, CT, USA), excitation wavelength was set to 340 nm and emission was read at both 615 nm (8.5 nm bandwidth) and 665 nm (7.5 nm bandwidth) over 200ms with a 100ms delay between excitation and emission measurements. Emission ratio signals (EM) were calculated as the ratio between the 665 nm signal and the 615 nm signal. […]
# DYRK1B [2] = molecular target: T1, DYRK1B; parameters: method as in Dirice et al. 2016; settings: reference activity value, ref Dirice et al. 2016; cited from earlier work
# DYRK2 = molecular target: T2, DYRK2 (Homo sapiens, UniProt Q92630); experiment: Kinase activity assay (33P-ATP radioactive filter binding); format: biochemical; settings: duplicate 10-point concentration curve, mean ± SD
# T2 sequence (Q92630 1-601): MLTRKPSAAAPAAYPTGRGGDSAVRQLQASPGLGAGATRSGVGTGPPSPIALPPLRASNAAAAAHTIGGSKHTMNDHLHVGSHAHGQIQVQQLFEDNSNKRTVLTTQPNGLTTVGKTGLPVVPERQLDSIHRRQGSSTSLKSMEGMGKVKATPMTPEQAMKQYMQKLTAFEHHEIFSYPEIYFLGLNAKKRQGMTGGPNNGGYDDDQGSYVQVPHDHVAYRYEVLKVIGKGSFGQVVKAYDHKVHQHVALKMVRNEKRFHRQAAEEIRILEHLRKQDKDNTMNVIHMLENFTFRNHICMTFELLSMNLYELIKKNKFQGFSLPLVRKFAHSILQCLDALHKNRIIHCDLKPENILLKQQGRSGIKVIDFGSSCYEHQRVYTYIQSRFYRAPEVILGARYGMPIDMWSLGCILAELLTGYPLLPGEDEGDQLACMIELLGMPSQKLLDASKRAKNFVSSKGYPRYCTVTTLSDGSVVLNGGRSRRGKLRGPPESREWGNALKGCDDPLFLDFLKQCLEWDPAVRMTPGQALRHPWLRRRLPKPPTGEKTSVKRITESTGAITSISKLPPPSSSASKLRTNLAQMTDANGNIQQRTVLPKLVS
# Procedure: (§1) Each kinase was assayed using a duplicate 10-point concentration curve.
# DYRK3 = molecular target: T3, DYRK3 (Homo sapiens, UniProt O43781); experiment: as above; format: biochemical; settings: duplicate 10-point concentration curve, mean ± SD
# T3 sequence (O43781 1-588): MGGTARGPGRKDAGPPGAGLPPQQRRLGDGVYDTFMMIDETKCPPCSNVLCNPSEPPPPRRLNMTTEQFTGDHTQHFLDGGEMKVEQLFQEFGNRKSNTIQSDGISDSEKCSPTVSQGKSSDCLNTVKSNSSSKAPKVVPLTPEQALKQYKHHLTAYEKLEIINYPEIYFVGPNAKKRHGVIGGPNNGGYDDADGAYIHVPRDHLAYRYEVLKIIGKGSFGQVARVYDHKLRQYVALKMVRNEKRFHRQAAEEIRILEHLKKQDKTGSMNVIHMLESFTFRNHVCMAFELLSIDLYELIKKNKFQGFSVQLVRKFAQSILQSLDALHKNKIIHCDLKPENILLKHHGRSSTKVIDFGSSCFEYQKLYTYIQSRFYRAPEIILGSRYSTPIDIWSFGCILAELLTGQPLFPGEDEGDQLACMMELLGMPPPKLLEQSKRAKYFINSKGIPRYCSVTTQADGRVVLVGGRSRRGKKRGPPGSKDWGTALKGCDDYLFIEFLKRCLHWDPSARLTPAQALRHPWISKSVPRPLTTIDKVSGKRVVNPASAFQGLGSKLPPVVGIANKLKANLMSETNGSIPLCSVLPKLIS
# Procedure: as §1
# RIN-M5F cells [3] = experiment: Cell viability (MTS, CellTiter 96 AQueous One) in cytokine-treated cells; format: cell-based, rat
# Procedure: (§2) Rat beta cells RIN-M5F (purchased from ATCC, Manassas, VA, USA, product code ATCC-CRL-11605, passage number below 40 for all experiments presented in this manuscript) were cultured in RPMI-1640 (cat# R5886, Sigma-Aldrich, Saint Louis, MO, USA) supplemented with 10% FBS (Biowest, Nauillé, France), 2 mM L-glutamine (Biowest), 1 mM sodium pyruvate (Merck, Darmstadt, Germany) and 1x Penicillin-Streptomycin (Sigma-Aldrich) according to manufacturer’s instructions. Cells were seeded 3 days before the start of each experiment to allow full attachment. In experiments analysing the effects of cytokines, cells were treated with 20 ng/ml human IL-1β and 20 ng/ml rat IFNγ (Peprotech, Rocky Hill, NJ, USA) for a given time as indicated. Mycoplasma was tested as negative using MycoAlert® Mycoplasma Kit (Lonza, Basel, Switzerland).
# RIN-M5F cells were cultured in 96-well plates, 2 × 10^4 cells/well. […] Control wells with RPMI-1640 alone or supplemented with DMSO (Sigma-Aldrich, final concentration 10%) were used to estimate absorbance at 100% or 0% viability, respectively. […] The cells were thereafter incubated for an additional 72 h, and cell viability was measured by CellTiter 96®AQueous One Solution Assay (Promega, Madison, WI, USA) according to the manufacturer’s instructions. Absorbance at 490 nm was measured using a Spark® multimode microplate reader (Tecan, Männedorf, Switzerland). […]
# RIN-M5F cells [4] = experiment: Caspase 3/7 activity (Caspase-Glo); format: cell-based, rat
# Procedure: as §2
# RIN-M5F cells were cultured in 96-well plates, 2 × 10^4 cells/well. […] Caspase 3/7 activity was measured by Caspase-Glo (Promega) according to the manufacturer’s instructions. Each experiment was performed in triplicates.
# RIN-M5F cells [5] = experiment: EdU incorporation (flow cytometry); format: cell-based, rat; settings: for Average increase of EdU + labelling: versus untreated
# Procedure: as §2
# RIN-M5F cells were seeded into 6 well plates, 6 × 10^5 cells per well. […] Subsequently, the cells were stained with 10 µM Click-iT EdU (Invitrogen, Waltham, MA, USA) for 2 h, and analysed by flow cytometry (CytoFLEX, Beckman Coulter, Brea, CA, USA) according to the manufacturer’s instructions. EdU incorporation was analysed using the CytExpert software.
# RIN-M5F cells [6] = experiment: Cell cycle distribution (PI staining, flow cytometry); format: cell-based, rat
# Procedure: as §2
# RIN-M5F cells were seeded in 6-well plates, 6 × 10^5 cells/well. […] After stimulation, the cells were washed with phosphate buffered saline (PBS) and trypsinated for 5 min at 37 °C, and fixed in ice-cold ethanol (70%) at 4 °C until analysis. The cells were stained by FxCycle™ PI/RNase Staining Solution kit (Invitrogen) according to manufacturer’s instructions and analysed by flow cytometry (CytoFLEX, Beckman Coulter). The percentages of cells in G1, S1 and G2/M was determined using the CytExpert software.
# [7] = tested on: phospho-dyrk1a/b (Tyr321, Tyr273); experiment: Western blot of phosphorylated DYRK1A/B; format: cell-based, rat; settings: 48 h, no cytokines
# Procedure: (§3) RIN-M5F cells were seeded in 6-well plates, 6 × 10^5 cells/well. […] After centrifugation (16.9 RCF, 15 min at 4 °C) the samples were directly diluted in NuPAGE™ LDS Sample Buffer (4X, Invitrogen) supplemented with NuPAGE™ Sample Reducing Agent (10X, Invitrogen), boiled at 95 °C for 5min and loaded on gel (NuPAGE™ 4–12%, Bis-Tris, Invitrogen). Protein transfer to PVDF membrane was performed by the iBlot™ dry blotting system (Invitrogen) according to manufacturer’s instructions. The membrane was blocked using SuperBlock™ Blocking Buffer (Thermo Fisher Scientific) and subsequently cut in half around 60 kDA, the top half was incubated with primary antibodies for phospho-dyrk1a/b (Tyr321, Tyr273) (1:500, Invitrogen, ref: PA5-64574), while the bottom half was incubated with phospho-p27^kip1 (Ser10) (1:200, Invitrogen, ref:34-6300) over night at 4 °C. After washing, the membrane was incubated with Alexa488-conjugated secondary antibody (1:5000, goat anti-rabbit, Invitrogen) for 2 h and imaged with a PharoxFX imager (Bio-Rad, Hercules, CA, USA). […] Protein quantification was performed with ImageJ (National Institutes of Health, Bethesda MD, USA), using the gel analysis tool to get the integrated pixel intensity for each band.
# phospho-p27^kip1 (Ser10) = experiment: Western blot of phosphorylated p27KIP; format: cell-based, rat; settings: 48 h, no cytokines
# Procedure: as §3
# HepG2 cells = experiment: EdU incorporation in HepG2 cells; format: cell-based; settings: 10 µM BfC versus untreated
# Source text: Supplementary Figure S2. Redocking of harmine in DYRK1A. The interactions between the compounds and the kinase hinge are identical (red circles) in both calculated and experimental model. […]
# compounds are shown as cartoon, with blue for nitrogen atoms, white for hydrogen, red for oxygen, purple for iodine and either orange (experimental) or green (docked) for carbon atoms. The protein active site is shown as a grey surface and important residues are shown as wire, dashed line represent […]
# µM). Open bars: EdU negative cells. Closed bars: EdU positive cells. Closed circles: Untreated cells. […]
# 48 cell lines = tested on: 48 cell lines; parameters: method as in PMID 31647655; settings: cited from earlier work
# [8] = 20 µM, cells treated with cytokines
# T1 sequence (Q9Y463 whole entry): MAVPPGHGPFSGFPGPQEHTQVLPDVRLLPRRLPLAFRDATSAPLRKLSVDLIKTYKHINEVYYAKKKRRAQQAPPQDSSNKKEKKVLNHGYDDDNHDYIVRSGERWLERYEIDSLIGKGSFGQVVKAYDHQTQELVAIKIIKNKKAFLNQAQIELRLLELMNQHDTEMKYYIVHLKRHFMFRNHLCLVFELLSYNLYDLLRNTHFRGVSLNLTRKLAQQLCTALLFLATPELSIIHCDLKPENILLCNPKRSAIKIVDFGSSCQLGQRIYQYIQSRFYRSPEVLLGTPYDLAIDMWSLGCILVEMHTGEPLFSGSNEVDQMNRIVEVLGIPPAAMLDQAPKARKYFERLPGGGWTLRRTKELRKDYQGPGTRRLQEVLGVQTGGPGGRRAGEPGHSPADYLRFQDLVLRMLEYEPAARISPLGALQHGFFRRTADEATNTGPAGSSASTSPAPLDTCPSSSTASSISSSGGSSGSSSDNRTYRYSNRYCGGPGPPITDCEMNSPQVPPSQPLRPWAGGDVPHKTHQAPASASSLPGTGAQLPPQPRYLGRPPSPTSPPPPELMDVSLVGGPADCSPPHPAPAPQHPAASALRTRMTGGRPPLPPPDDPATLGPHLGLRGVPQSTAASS
structure (smiles),measurement,setting,value
"Nc1ncnc2c1c(I)cn2[C@@H]1O[C@H](CO)[C@@H](O)[C@H]1O [5IT, reference compound]",Kd,"DYRK1B [1]; lanthaScreen, 95% confidence interval in bracket",2.4 nM
same,IC50,DYRK1B [2],10 nM
"COc1cc2c(-c3cnc(-c4ccc[nH]4)o3)c[nH]c2cc1Br [BfC, breitfussin C]",IC50,DYRK2,1400 ± 500 nM
same,IC50,DYRK3,4400 ± 800 nM
same,Kd,"DYRK1B [1]; TR-FRET, approximate because of compound autofluorescence",~9000 nM and 9000 nM
same,Protective effect against cytokine-induced cell death at higher concentrations,"RIN-M5F cells [3]; concentrations above 10–20 µM (up to 40 µM), with cytokines",lost
same,Concentration range of effective protection against cytokine-induced cell death,RIN-M5F cells [3]; dose-response 1.25-40 µM with cytokines,10 to 20 µM
same,Caspase 3/7 activity compared to control,"RIN-M5F cells [4]; 10 µM pretreatment 24 h before cytokines, cytokines alone 199%",210 ± 15%
same,Caspase 3/7 activity compared to control,"RIN-M5F cells [4]; 10 µM, 48 h, without cytokines",127 ± 2%
same,Caspase 3/7 activity compared to control,"RIN-M5F cells [4]; 20 µM pretreatment 24 h before cytokines, cytokines alone 199%",241 ± 20%
same,Caspase 3/7 activity compared to control,"RIN-M5F cells [4]; 20 µM, 48 h, without cytokines",186 ± 19%
same,EdU + labelling rate,"RIN-M5F cells [5]; 10 µM pretreatment, cytokine treated cells, cytokines alone 7.7 ± 0.8%",8.8 ± 0.8%
same,Average increase of EdU + labelling,"RIN-M5F cells [5]; 10 µM, without cytokines",12.5%
same,EdU + labelling rate,"RIN-M5F cells [5]; 10 µM, without cytokines, untreated 15.2 ± […]",17.1 ± 0.9%
same,EdU + labelling rate,"RIN-M5F cells [5]; 20 µM pretreatment, cytokine treated cells, cytokines alone 7.7 ± 0.8%",11.0 ± 1.1%
same,Average increase of EdU + labelling,"RIN-M5F cells [5]; 20 µM, without cytokines",21.1%
same,EdU + labelling rate,"RIN-M5F cells [5]; 20 µM, without cytokines, untreated 15.2 ± […]",18.4 ± 1.5%
same,Change of cells in G0/G1 phase,"RIN-M5F cells [6]; 10 µM, without cytokines",significantly decreased
same,Change of cells in S and G2/M phase,"RIN-M5F cells [6]; 10 µM, without cytokines",increased
same,Number of cells in G0/G1,"RIN-M5F cells [6]; 20 µM, 48 h, without cytokines, control 76.9 ± 0.6%",66.6 ± 1.3%
same,Change of cells in S and G2/M phase,RIN-M5F cells [6]; [8],increased
same,Change of number of cells in G0/G1,RIN-M5F cells [6]; [8],significantly decreased
same,Change of cells in S and G2/M phase,"RIN-M5F cells [6]; 20 µM, without cytokines",increased
same,Decrease of expression of p-DYRK1A/B compared to control,[7]; 10 µM,approximately 50%
same,Decrease of expression of p-DYRK1A/B compared to control,[7]; 20 µM,~62%
same,Decrease of expression of p-p27^KIP compared to control,phospho-p27^kip1 (Ser10); 10 µM,23%
same,Decrease of expression of p-p27^KIP compared to control,phospho-p27^kip1 (Ser10); 20 µM,42%
same,EdU incorporation in HepG2 cells,HepG2 cells,decreased
same,Concentration at which cytotoxic to 48 cell lines,48 cell lines,≤ 10 µM
